We go through five compounds from PMC5372594 (International Journal of Molecular Sciences, 2017).

Peptide text beside a SMILES is read from it.

Series [1] has as its target T1, GLP-1R (Homo sapiens, UniProt P43220).
T1 construct: expressed in transfected cells
As to the kind of experiment: CRE-luciferase reporter-gene assay, CHO cells stably expressing human GLP-1 receptor. Type of series: cell-based. The settings on record: 4-h culture with peptide, 10-step 5-fold dilution from 250 nmol/L, mean ± SEM, n = 3.
Protocol: A cyclic adenosine monophosphate response element (CRE)-luciferase based reporter-gene assays, as a surrogate for cyclic adenosine monophosphate (cAMP) formation, were used to measure the abilities of the analogs to activate GLP-1R.
Cells were grown at 37 °C with 5% CO2 in Dulbecco’s modified Eagle’s medium-F12 supplemented with 10% fetal bovine serum (FBS), 4.5 g/L glucose, 100 units/ml penicillin, 100 mg/mL streptomycin, 0.6 mg/mL hygromycin B and 1 mg/mL G418. […] Each well contained 20,000 cells. The initial concentration of each analog and positive control was 250 nmol/L, which was diluted 5 times to produce a 10-step gradient, and each well contained 20 μL. After 4-h culture, 100 μL of a chemical light-emitting substrate was added to each well. Fluorescence was measured with an EnVision 2104 Multilabel Reader (PerkinElmer, Houston, TX, USA) after a 40-min oscillation at 25 °C.

The target of series [2] is T1, GLP-1R. In words: CHO cell cAMP accumulation assay (ELISA). Type of series: cell-based. The settings on record: 30 min incubation, 0.5 mM IBMX, 3-parameter non-linear regression, n = 3.
Protocol: CHO cells were stably transfected with GLP-1R and grown in conditions described above. […] After 4-h culture, cells were treated with compounds diluted in assay buffer to concentrations within the 10^−4–10^4 nM range and incubated for 30 min. Cells were lysed by freezing and thawing three times. The samples were then assayed according to the cAMP ELISA assay kit protocol (Jiancheng, Nanjing, China).
Series [3] relates to trypsin. As to the kind of experiment: Trypsin resistance measured by HPLC (residue rate). Type of series: in vitro ADME. An excerpt:
The substrate was hydrolyzed with trypsin, and the peak area of the sample, which added the stop-buffer at the start point, was set to 100%.

The nature of a further series: in vivo. The settings on record: male, C57BL/6J, mouse.
The conditions of series [4]: mouse, in vivo.
Protocol: (§1) Retro orbital blood collections were performed on mice at different time points (0, 1, 2, 3, 4, 6, 8, 10 and 12 h).
The test system of series [5] is trypsin. As to the kind of experiment: trypsin. The conditions noted are these: up to 60 min.

As a reminder, the EC50 is the midpoint of the concentration-response curve. In general, amount remaining refers to the share of the starting amount still present when the sample was taken. The low end stands for a greater loss, the high end for greater stability. A word on the AUC(0-t): it is exposure summed from dosing to a finite time, without extrapolation to infinity. Higher therefore signals high exposure. The term Cmax denotes the highest concentration seen after dosing.

T1 sequence (P43220 24-463): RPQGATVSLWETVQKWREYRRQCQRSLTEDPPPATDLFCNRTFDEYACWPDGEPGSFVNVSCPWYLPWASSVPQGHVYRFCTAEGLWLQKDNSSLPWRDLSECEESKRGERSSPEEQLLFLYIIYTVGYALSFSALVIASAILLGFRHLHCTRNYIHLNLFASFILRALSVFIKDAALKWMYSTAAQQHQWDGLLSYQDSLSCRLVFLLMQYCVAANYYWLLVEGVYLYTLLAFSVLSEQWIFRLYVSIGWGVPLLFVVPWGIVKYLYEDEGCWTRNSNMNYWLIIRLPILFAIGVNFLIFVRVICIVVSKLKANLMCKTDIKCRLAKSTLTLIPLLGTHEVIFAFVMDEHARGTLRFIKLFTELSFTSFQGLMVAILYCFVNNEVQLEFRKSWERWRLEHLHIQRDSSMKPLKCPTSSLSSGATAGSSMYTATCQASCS
Protocol for in vivo: as §1

As to `CC[C@H](C)[C@H](NC(=O)[C@H](Cc1ccccc1)NC(=O)[C@H](CC(C)C)NC(=O)[C@H](CC(C)C)NC(=O)[C@@H](NC(=O)[C@H](C)NC(=O)[C@H](CCC(=O)O)NC(=O)[C@H](CCC(=O)O)NC(=O)[C@H](CCC(=O)O)NC(=O)[C@H](CCSC)NC(=O)[C@H](CCC(N)=O)NC(=O)[C@H](CCSC)NC(=O)[C@H](CO)NC(=O)[C@H](CC(C)C)NC(=O)[C@H](CC(=O)O)NC(=O)[C@H](CO)NC(=O)[C@@H](NC(=O)[C@H](Cc1ccccc1)NC(=O)[C@@H](NC(=O)CNC(=O)[C@H](CCC(=O)O)NC(=O)CNC(=O)[C@@H](N)Cc1c[nH]cn1)[C@@H](C)O)[C@@H](C)O)C(C)C)C(=O)N[C@@H](CCC(=O)O)C(=O)N[C@@H](Cc1c[nH]c2ccccc12)C(=O)N[C@@H](CC(C)C)C(=O)N[C@@H](CCSC)C(=O)N[C@@H](CC(N)=O)C(=O)NCC(=O)NCC(=O)N1CCC[C@H]1C(=O)N[C@@H](CO)C(=O)N[C@@H](CO)C(=O)NCC(=O)N[C@@H](C)C(=O)N1CCC[C@H]1C(=O)N1CCC[C@H]1C(=O)N1CCC[C@H]1C(=O)N[C@@H](CO)C(=O)N[C@@H](CS)C(=O)O` [TSME-1] (H-HGEGTFTSDLSMQMEEEAVLLFIEWLMNGGPSSGAPPPSC-OH), the EC50 at GLP-1R [1] came out at 0.38 nM; at GLP-1R [2], 1.1 nM. The “Residue rate at 30 min” value in the series with trypsin [3] was 100% ± 0%. Also, the share remaining at 1 h in the series on trypsin [3] (isolated enzyme trypsin) turned out to be 100%. Besides, the AUC(0-t) in “in vivo” (po) worked out at 0.56 ± 0.15 ng·h/mL; in the series “in vivo” (sc), 3.17 ± 0.72 ng·h/mL. In addition, in “in vivo” (po, 2.12 mg/kg), the maximum concentration (Cmax) was 0.2 ± 0.05 ng/mL. The Relative bioavailability in series [4] is 0.881%. The “Time to peak concentration” value in series [4] (po) is reported as “An hour”.
On GLP-1R [1], `CC[C@H](C)[C@H](NC(=O)[C@H](Cc1ccccc1)NC(=O)[C@H](CC(C)C)NC(=O)[C@@H](NC(=O)[C@@H](NC(=O)[C@H](C)NC(=O)[C@H](CCC(=O)O)NC(=O)[C@H](CCC(=O)O)NC(=O)[C@H](CCC(=O)O)NC(=O)[C@H](CCSC)NC(=O)[C@H](CCC(N)=O)NC(=O)[C@@H](NC(=O)[C@H](CO)NC(=O)[C@H](CC(C)C)NC(=O)[C@H](CC(=O)O)NC(=O)[C@H](CO)NC(=O)[C@@H](NC(=O)[C@H](Cc1ccccc1)NC(=O)[C@@H](NC(=O)CNC(=O)[C@H](CCC(=O)O)NC(=O)CNC(=O)[C@@H](N)Cc1c[nH]cn1)[C@@H](C)O)[C@@H](C)O)C(C)C)C(C)C)C(C)C)C(=O)N[C@@H](CCC(=O)O)C(=O)N[C@@H](Cc1c[nH]c2ccccc12)C(=O)N[C@@H](CC(C)C)C(=O)N[C@H](C(=O)N[C@@H](CC(N)=O)C(=O)NCC(=O)NCC(=O)N1CCC[C@H]1C(=O)N[C@@H](CO)C(=O)N[C@@H](CO)C(=O)NCC(=O)N[C@@H](C)C(=O)N1CCC[C@H]1C(=O)N1CCC[C@H]1C(=O)N1CCC[C@H]1C(=O)N[C@@H](CO)C(=O)N[C@@H](CS)C(=O)O)C(C)C` [TSME-3] (H-HGEGTFTSDLSVQMEEEAVVLFIEWLVNGGPSSGAPPPSC-OH) came in with an EC50 of 19.2 nM.
Turning to `CC[C@H](C)[C@H](NC(=O)[C@H](Cc1ccccc1)NC(=O)[C@H](CC(C)C)NC(=O)[C@H](Cc1ccc(O)cc1)NC(=O)[C@@H](NC(=O)[C@H](C)NC(=O)[C@H](CCC(=O)O)NC(=O)[C@H](CCC(=O)O)NC(=O)[C@H](CCC(=O)O)NC(=O)[C@H](CCSC)NC(=O)[C@H](CCC(N)=O)NC(=O)[C@H](CCSC)NC(=O)[C@H](CO)NC(=O)[C@H](CC(C)C)NC(=O)[C@H](CC(=O)O)NC(=O)[C@H](CO)NC(=O)[C@@H](NC(=O)[C@H](Cc1ccccc1)NC(=O)[C@@H](NC(=O)CNC(=O)[C@H](CCC(=O)O)NC(=O)CNC(=O)[C@@H](N)Cc1c[nH]cn1)[C@@H](C)O)[C@@H](C)O)C(C)C)C(=O)N[C@@H](CCC(=O)O)C(=O)N[C@@H](Cc1c[nH]c2ccccc12)C(=O)N[C@@H](CC(C)C)C(=O)N[C@@H](CCSC)C(=O)N[C@@H](CC(N)=O)C(=O)NCC(=O)NCC(=O)N1CCC[C@H]1C(=O)N[C@@H](CO)C(=O)N[C@@H](CO)C(=O)NCC(=O)N[C@@H](C)C(=O)N1CCC[C@H]1C(=O)N1CCC[C@H]1C(=O)N1CCC[C@H]1C(=O)N[C@@H](CO)C(=O)N[C@@H](CS)C(=O)O` [TSME-4] (H-HGEGTFTSDLSMQMEEEAVYLFIEWLMNGGPSSGAPPPSC-OH), at GLP-1R [1], the midpoint of the response, the EC50, lay at 31.2 nM.
Still for that read-out and setting: the result for `CC[C@H](C)[C@H](NC(=O)[C@H](CC(C)C)NC(=O)[C@H](Cc1c[nH]c2ccccc12)NC(=O)[C@H](CCC(=O)O)NC(=O)[C@@H](NC(=O)[C@H](Cc1ccccc1)NC(=O)[C@H](CC(C)C)NC(=O)[C@H](Cc1ccc(O)cc1)NC(=O)[C@@H](NC(=O)[C@H](C)NC(=O)[C@H](CCC(=O)O)NC(=O)[C@H](CCC(=O)O)NC(=O)[C@H](CCC(=O)O)NC(=O)[C@H](CCSC)NC(=O)[C@H](CCC(N)=O)NC(=O)[C@@H](NC(=O)[C@H](CO)NC(=O)[C@H](CC(C)C)NC(=O)[C@H](CC(=O)O)NC(=O)[C@H](CO)NC(=O)[C@@H](NC(=O)[C@H](Cc1ccccc1)NC(=O)[C@@H](NC(=O)CNC(=O)[C@H](CCC(=O)O)NC(=O)CNC(=O)[C@@H](N)Cc1c[nH]cn1)[C@@H](C)O)[C@@H](C)O)[C@@H](C)CC)C(C)C)[C@@H](C)CC)C(=O)N[C@@H](CC(N)=O)C(=O)NCC(=O)NCC(=O)N1CCC[C@H]1C(=O)N[C@@H](CO)C(=O)N[C@@H](CO)C(=O)NCC(=O)N[C@@H](C)C(=O)N1CCC[C@H]1C(=O)N1CCC[C@H]1C(=O)N1CCC[C@H]1C(=O)N[C@@H](CO)C(=O)N[C@@H](CS)C(=O)O` [TSME-5] (H-HGEGTFTSDLSIQMEEEAVYLFIEWLINGGPSSGAPPPSC-OH) reads 8.83 nM.
Compound “HGEGTFTSDLSMQMEEEAVLLFIEWLMNGGPSSGAPPPSC” registered a not cleaved in the series on trypsin [5] of 100% at 60 min.
